{
  "source": "patent US20180135134A1",
  "about": "“TARGETED SELECTION OF PATIENTS FOR TREATMENT WITH CORTISTATIN DERIVATIVES” (President and Fellows of Harvard College, priority 2015, published 2018)",
  "key": {"SK.BR-3": {"system": "SK.BR-3", "assay": "Soft agar growth assay (Alamar Blue)", "settings": "Breast cancer, HER2 overexpression, 100 nM cortistatin A", "method": "For the 62 cell lines 96 well suspension cell culture plates were prepared. 100 μL of the soft agar bottom layer (0.6% final concentration in complete medium) was poured and left to solidify. 50 μL of the soft agar top layer (0.4% final concentration) containing the corresponding cells and cell number were then added on top, solidified and incubated at 37° C., 10% CO2. After the soft agar had solidified, the test items were added at indicated final concentrations into the inner wells of the plate. Subsequently, the assay was incubated in cell culture incubators for 8 to 14 days. Finally, the assay was developed using Alamar Blue and upon 1-5 h of incubation at 37° C. fluorescence intensity was determined (excitation: 560 nm; emission: 590 nm). As low control, cells were treated with 1E-05M Staurosporine (6fold values). As high control, cells were treated with 0.1% DMSO (solvent control, 6 fold values).\nRaw data were converted into percent soft agar growth relative to high controls (solvent 0.1% DMSO) and low controls (1E-05M Staurosporine), which were set to 100% and 0%, respectively."}, "SKNO-1": {"system": "SKNO-1", "assay": "Cellular proliferation assay (CellTiter-Glo)", "settings": "Homo sapiens", "method": "All suspension cells were plated (96-well) in triplicate at 5,000-30,000 cells per well for testing (n=3). Viable cell number was estimated after 3, 7 and 10 days by counting viable cells from one vehicle well, generating a cell dilution series, transferring 20 ml per well in duplicate to a 384-well plate, and performing a linear regression to CellTiter-Glo (Promega) response (SPECTRAmax M3, Molecular Devices). Cells from all wells were also fourfold diluted in media and transferred in duplicate for CellTiter-Glo measurement. On days 3 and 7, an equal volume for all wells was split-back with fresh media and compound, such that the resulting cell density for the vehicle well matched the initial seeding density. For days 7 and 10, estimated cell number represents the split-adjusted theoretical cell number. […] For growth assays with inhibitors, n=3 for each concentration with two independent experiments."}},
  "data": [
    {"molecule": "CN(C)[C@H]1C[C@@]23CC[C@@]4(O2)C(=CC[C@]2(C)[C@@H](c5ccc6ccncc6c5)CC[C@H]24)C=C3[C@@H](O)[C@@H]1O", "note": "[Cortistatin A, cortistatin A]", "values": [
      {"measurement": "% growth rel. to vehicle", "setting": "SK.BR-3", "value": 22, "unit": "%"},
      {"measurement": "GI50", "setting": "SKNO-1; SKNO-1", "value": 1, "unit": "nM"},
      {"measurement": "GI50", "setting": "SKNO-1; SKNO-1, 240 h", "value": 1, "unit": "nM"}
    ]}
  ]
}
